Test system: cancer/testis antigens (MAGE-A1, -A3, -A4, -A6, -A10, -A12, NY-ESO-1, GAGE-3-7, BORIS) in proliferating lymphocytes
Test: RT-PCR analysis of cancer/testis antigen expression in 5-Aza-CdR-treated proliferating lymphocytes

**Q.** For `Nc1ncn([C@H]2C[C@H](O)[C@@H](CO)O2)c(=O)n1` [Culture 5-Aza-CdR, 5-Aza-2′-deoxycytidine], which “induction of CTA expression (RT-PCR)” value (10 μM 5-aza-2′-deoxycytidine, 150 IU/ml IL-2, 3 days, lymphocytes expanded with autologous mature dendritic cells) is on record?
**A.** all the investigated antigens are present in the induced lymphocytes

**Q.** What about the “CTA expression, cultures from log phase of growth (day 8) versus plateau (day 10)” value (10 μM 5-aza-2′-deoxycytidine, 3 days) of the same compound?
**A.** higher expression in cultures taken from log phase of growth

**Q.** And the “most easily inducible CTA” value (preliminary experiments on kinetics and concentration dependence (not shown))?
**A.** MAGE-A1, MAGE-A4 and MAGE-A12

Reference: patent US10023839B2, “Anti-tumour vaccine derived from normal cells” (Cytovac A/S, priority 2007, dated 2018)
